Like-named read-outs stand apart in the source and are kept apart here.
Columns and labels:
[1] = IAM-HPLC affinity for membrane phospholipids (logKIAM/W); assay type: physicochemical; conditions: IAM.PC.MG column, pH 7.0 phosphate buffer/acetonitrile, extrapolated to 100% aqueous eluent
Description: n-Octanol/water partition coefficients were theoretically calculated by the program clogP for windows version 2.0 (Biobyte Corp., Claremont, CA, USA). Affinity for membrane phospholipids, so called “phospholipophilicity”, was measured by HPLC on a phospholipid stationary phase. […] liquid chromatograph (Waters-Millipore, Milford, MA, USA), equipped with a 7125 Rheodyne injection valve and a 486 UV detector (Waters) set at 246 nm, was used. The column was an IAM.PC.MG (Immobilized Artificial Membrane-PhosphatidylCholine-MethylGlycolate) (4.6 mm × 150 mm) (Regis Chemical Company, Morton Grove, IL, USA). The mobile phase was 0.01 M phosphate buffer at pH 7.0 and acetonitrile at percentages ranging from 10 to 35 percent (v/v) (from 1.0 to 4.0 mL/min). The chromatography was carried out at room temperature. All samples were dissolved in methanol (ca. 10^-3 M) and 20 μL samples were injected in the chromatograph. Chromatographic retention data are expressed as the logarithm of the capacity factor, log k, defined as: log k = log [(tr - t0)/t0] (1) where tr and t0 are the retention times of the drug and a non-retained compound (citric acid), respectively. The log k values relative to 100% aqueous eluent (logKIAM/W) were calculated by performing a polycratic method of extrapolation. Each compound was eluted with at least three different mobile phases containing acetonitrile in different percentages (φ). […] All values of log k reported are the average of at least three measurements; the 95% confidence interval never exceeded 0.04 for each log k value. Possible occurrence of retention changes due to column aging was monitored by checking the retention times of five test compounds (amlodipine, p-nitroaniline, toluene, isradipine, and ketoprofen).

Aβ-42 = experiment: Western blotting of Aβ-42 expression in CTXTNA2 astrocytes (in vitro γ-secretase activity); assay type: cell-based, rat; conditions: 24 h
Description: CTXTNA2 cell line, established from primary cultures of type 1 astrocytes from brain frontal cortex tissue of 1 day old rats, was obtained by ECACC (Salisbury, UK). Cells have been maintained in DMEM, 10% FBS at 37 °C, 5% CO2 until sub-confluence and incubated for 24 h with a DMSO solution of drug (concentrations ranging from 1 µM to 100 µM). For detection of cell viability, a Trypan blue dye exclusion test has been performed.
Cell lysates (20 µg) have been electrophoresed and transferred to nitrocellulose membrane. Nitrocellulose membranes, blocked in 5% non-fat milk, 10 mmol/L Tris pH 7.5, 100 mmol/L NaCl, 0.1% Tween-20, have been probed with mouse APP (Millipore, Billerica, MA, USA) and Aβ (Alpha Diagnostic Intl, San Antonio, TX, USA) monoclonal antibodies (Santa Cruz Biotechnology, Santa Cruz, CA, USA), then incubated in the presence of specific enzyme conjugated IgG horseradish peroxidase. Immunoreactive bands have been detected by ECL detection system (Amersham Intl., Buckinghamshire, UK) and analysed by densitometry. Densitometric values, expressed as Integrated Optical Intensity (I.O.I.), have been estimated in a CHEMIDOC XRS system by the QuantiOne 1-D analysis software (BioRad, Richmond, CA, USA). Values obtained have been normalized basing on densitometric values of internal β tubulin. Statistical analysis has been performed using the analysis of variance (ANOVA). Results have been expressed as mean ± SD. Values of p < 0.05 have been considered statistically significant.

APP = conditions: 24 h
Description: For detection of cell viability, a Trypan blue dye exclusion test has been performed [33].
Cell lysates (20 µg) have been electrophoresed and transferred to nitrocellulose membrane. […] Immunoreactive bands have been detected by ECL detection system (Amersham Intl., Buckinghamshire, UK) and analysed by densitometry. Densitometric values, expressed as Integrated Optical Intensity (I.O.I.), have been estimated in a CHEMIDOC XRS system by the QuantiOne 1-D analysis software (BioRad, Richmond, CA, USA). Values obtained have been normalized basing on densitometric values of internal β tubulin. Statistical analysis has been performed using the analysis of variance (ANOVA). Results have been expressed as mean ± SD. Values of p < 0.05 have been considered statistically significant.

[2] = PAMPA-GI permeability (egg lecithin in dodecane); assay type: in vitro ADME; conditions: read-out: PAMPA-GI Pe
Description: (§1) The following protocol was applied to measure the Pe through the artificial membrane to predict oral absorption and BBB permeation. In order to study the g.i. permeability, a 2% solution (w/v) of egg lecithin (phosphatidyl choline > 98%, PC) in dodecane was employed as an artificial membrane solution. The effective permeability of BBB was measured using phospholipid mixture from porcine polar brain lipid extract, composed by PC 12.6%, phosphatidylethanolamine (PE) 33.1%, phosphatidylserine (PS) 18.5%, phosphatidylinositol (PI) 4.1%, phospatidic acid (PA) 0.8% and 30.9% of other compounds (purchased from Avantis Polar Lipids, Alabaster, AL, USA). Each donor filtration plate well was then impregnated with 5 µL of this solution carefully, and immediately after 150 µL of phosphate buffer (pH 7.4/pH 6.5), containing co-drug 1 500 µM and iPrOH 20% as co-solvent was added. Then the drug-filled donor plate was placed into the acceptor plate that had been prefilled with the same buffer (300 µL) as acceptor solution. After plate lid was replaced, the resulting assembled donor-acceptor plates were incubated at r.t. for 2 h for PAMPA-GI and 18 h for PAMPA-BBB, following which drugs concentration in the acceptor and donor solutions were determined by HPLC [37].
(§2) Log Pe can be calculated from the equation below: [drawing 10] (2) where Pe is the effective permeability coefficient (cm x s^−1), VD is volume of donor compartment (0.15 cm^3) and VA is volume of acceptor compartment (0.30 cm^3), A is effective filter area (0.28 cm^2), t is incubation time for the assay (s), Cacceptor is the concentration of the compound in the acceptor compartment at the completion of the assay, and Cequilibrium is the concentration of compound at theoretical equilibrium.

[3] = PAMPA-BBB permeability (porcine polar brain lipid extract); assay type: in vitro ADME; conditions: PAMPA
Description: as §1, §2

[4] = pH 7.4, 18 h of incubation, read-out: PAMPA-BBB Pe

Row | SMILES | LogKIAM/W [1] | Expression of Aβ-42 (Aβ-42; 1 µM) | Expression of Aβ-42 (Aβ-42; 10 µM) | Expression of Aβ-42 (Aβ-42; 100 µM) | melting point [°C] | Expression of APP (APP; 1 µM) | Expression of APP (APP; 10 µM) | Expression of APP (APP; 100 µM) | Papp at 2 h, 500 µM ([2]; pH 6.5, 2 h of incubation) [×10⁻⁶ cm/s] | Papp at 2 h, 500 µM ([2]; pH 7.4, 2 h of incubation) [×10⁻⁶ cm/s] | Papp at 18 h, 500 µM [3, 4] [×10⁻⁶ cm/s] | Papp at 18 h, 500 µM ([3]; read-out: Pe, BBB penetration) [×10⁻⁶ cm/s]
1 | C[C@@H](C(=O)N[C@@H]1C(=O)N(C)c2ccccc2-c2ccccc21)c1ccc(-c2ccccc2)c(F)c1 [Compound 5, (2R)-2-(2-Fluoro-1,1'-biphenyl-4-yl)-N-[(7S)-5-methyl-6-oxo-6,7-dihydro-5H-dibenzo[b,d]azepin-7-yl]propanamide] | 3.93 | (17.4. ± 0.3) × 10^−2 | (17.1 ± 0.6) × 10^−2 | (17.4. ± 0.5) × 10^−2 | 102 to 103 | (41.1 ± 1.7) × 10^−2 | (44.2 ± 2.1) × 10^−2 | (49.2 ± 3.2) × 10^−2 | – | – | – | –
2 | C[C@H](C(=O)N[C@H]1C(=O)N(C)c2ccccc2-c2ccccc21)c1ccc(-c2ccccc2)c(F)c1 [Compound 6, (2S)-2-(2-Fluoro-1,1'-biphenyl-4-yl)-N-[(7R)-5-methyl-6-oxo-6,7-dihydro-5H-dibenzo[b,d]azepin-7-yl]propanamide] | 3.93 | (19.0 ± 0.6) × 10^−2 | (16.2 ± 0.5) × 10^−2 | (13.4 ± 0.7) × 10^−2 | 104 to 105 | (11.3 ± 0.4) × 10^−2 | (10.4 ± 0.2) × 10^−2 | (13.5 ± 0.5) × 10^−2 | – | – | – | –
3 | C[C@H](NC(=O)Cc1cc(F)cc(F)c1)C(=O)N[C@H](C(=O)OC(C)(C)C)c1ccccc1 [DAPT, reference compound] | 1.61 | (8.3 ± 0.2) × 10−2 | (6.4 ± 0.1) × 10−2 | (5.5 ± 0.3) × 10−2 | – | (65.4 ± 2.8) × 10−2 | (62.1 ± 2.8) × 10−2 | (58.3 ± 1.9) × 10−2 | 2.5 | 2.6 | 2.2 | –
4 | C[C@H](NC(=O)[C@@H](O)c1cc(F)cc(F)c1)C(=O)N[C@@H]1C(=O)N(C)c2ccccc2-c2ccccc21 [LY-411575, reference compound] | 1.85 | (8.2 ± 0.1) × 10^−2 | (6.0 ± 0.1) × 10^−2 | (4.1 ± 0.2) × 10^−2 | – | (64.0 ± 2.4) × 10^−2 | (54.7 ± 2.0) × 10^−2 | (57.2 ± 1.2) × 10^−2 | 2.3 | 2.5 | 2 | –
5 | CC(C)[C@H](O)C(=O)N[C@@H](C)C(=O)N[C@@H]1C(=O)N(C)CCc2ccccc21 [LY-450139, reference compound] | 0.11 | (9.4. ± 0.3) × 10^−2 | (5.1 ± 0.1) × 10^−2 | (5.4 ± 0.2) × 10^−2 | – | (65.9 ± 2.3) × 10^−2 | (60.0 ± 1.6) × 10^−2 | (58.8 ± 2.5) × 10^−2 | 1.6 | 1.8 | 1.4 | –
6 | C[C@@H](C(=O)O)c1ccc(-c2ccccc2)c(F)c1 [R-FLU, (R)-enantiomer of flurbiprofen, reference compound] | 1.82 | (20.5 ± 0.7) × 10^−2 | (19.1 ± 0.5) × 10^−2 | (14.1 ± 0.7) × 10^−2 | – | (60.0 ± 1.3) × 10^−2 | (54.5 ± 2.3) × 10^−2 | (52.1 ± 2.1) × 10^−2 | 2.4 | 2.1 | 1.6 | ≥ 2
7 | C[C@H](C(=O)O)c1ccc(-c2ccccc2)c(F)c1 [S-Flurbiprofen, reference compound] | – | (18.8. ± 0.6) × 10^−2 | (19.0 ± 0.7) × 10^−2 | (15.4 ± 0.3) × 10^−2 | – | (60.6 ± 2.5) × 10^−2 | (65.2 ± 1.8) × 10^−2 | (53.2 ± 1.9) × 10^−2 | – | – | – | –

Reference: publication PMC6270570, “New Flurbiprofen Derivatives: Synthesis, Membrane Affinity and Evaluation of in Vitro Effect on β-Amyloid Levels” (Molecules, 2013)
